In experiment [1] the test system is MCF7. In words: Cytotoxicity against human MCF7 cells after 72 hrs by MTT assay. The experiment is classed as functional, cell-based. Particulars: MCF7, 72 h. For orientation: Tetrazolium dyes change colour on reduction, which living cells bring about.
Experiment [2] relates to HL-60. In words: Cytotoxicity against human HL60 cells after 72 hrs by MTT assay. The experiment is classed as functional, cell-based. As to conditions: HL-60, 72 h.
Experiment [3] concerns A549. As to the kind of experiment: Cytotoxicity against human A549 cells after 72 hrs by MTT assay. The experiment is classed as functional, cell-based. As to conditions: A549, 72 h.
For experiment [4], the target named is Tubulin (Sus scrofa, UniProt P02554+P02550). In words: Inhibition of porcine brain tubulin polymerization by microtubule assembly assay.
In experiment [5] the test system is HCT-116. As to the kind of experiment: Cytotoxicity against human HCT116 cells after 72 hrs by MTT assay. Format: functional, cell-based. Particulars: HCT-116, 72 h.

Regarding `CC[C@H](C)[C@H](NC(=O)[C@H]1CCCCN1C)C(=O)N[C@@H](C[C@H](OC(C)=O)c1nc(C(=O)N[C@@H](Cc2ccccc2)C[C@H](C)C(=O)O)cs1)C(C)C`, the IC50 (as a rule, the midpoint of a concentration-inhibition curve) in experiment [1] was above 10000 nM; in experiment [2], 3600 nM; in experiment [3] it was above 10000 nM; in experiment [4], 6300 nM; in experiment [5] it was above 10000 nM.
Turning to `CC[C@H](C)[C@H](NC(=O)[C@H]1CCCCN1C)C(=O)N[C@H](C[C@H](OC(C)=O)c1nc(C(=O)N[C@@H](Cc2ccccc2)C[C@H](C)C(=O)O)cs1)C(C)C` [11-EPI-TUBULYSIN D], the IC50 in experiment [1] is 280 nM; in experiment [2] it was 3.1 nM; in experiment [3] it was 43 nM; in experiment [4] it was 1400 nM; in experiment [5], 13 nM.
Turning to `CC[C@H](C)[C@H](NC(=O)[C@H]1CCCCN1C)C(=O)N[C@@H](C[C@@H](OC(C)=O)c1nc(C(=O)N[C@@H](Cc2ccccc2)C[C@H](C)C(=O)O)cs1)C(C)C` [13-EPI-TUBULYSIN D], the IC50 in experiment [1] turned out to be 240 nM; in experiment [2] it was 98 nM; in experiment [3], 1200 nM; in experiment [4], 1700 nM; in experiment [5], 920 nM.
For `CC[C@H](C)[C@H](NC(=O)[C@H]1CCCCN1C)C(=O)N(COC(=O)CC(C)C)[C@H](C[C@@H](OC(C)=O)c1nc(C(=O)N[C@@H](Cc2ccccc2)C[C@H](C)C(=O)O)cs1)C(C)C` [TUBULYSIN D] the same measures were 0.67 nM, 0.0047 nM, 0.013 nM, 1700 nM and 0.0031 nM.
Take `CC[C@]1(O)C[C@@H]2CN(CCc3c([nH]c4ccccc34)[C@@](C(=O)OC)(c3cc4c(cc3OC)N(C)[C@H]3[C@@](O)(C(=O)OC)[C@H](OC(C)=O)[C@]5(CC)C=CCN6CC[C@]43[C@@H]65)C2)C1` [VINBLASTINE]: the IC50 in experiment [1] stood at 0.79 nM; in experiment [2], 1 nM; in experiment [3], 17 nM; in experiment [5], 27 nM.
